Read-outs that look alike come from different tables or passages of the source.
Assays:
PPAR-α [1] = biological target: T1, PPAR-α (Homo sapiens, UniProt Q07869); settings: cited from earlier work
T1 sequence (Q07869 1-468): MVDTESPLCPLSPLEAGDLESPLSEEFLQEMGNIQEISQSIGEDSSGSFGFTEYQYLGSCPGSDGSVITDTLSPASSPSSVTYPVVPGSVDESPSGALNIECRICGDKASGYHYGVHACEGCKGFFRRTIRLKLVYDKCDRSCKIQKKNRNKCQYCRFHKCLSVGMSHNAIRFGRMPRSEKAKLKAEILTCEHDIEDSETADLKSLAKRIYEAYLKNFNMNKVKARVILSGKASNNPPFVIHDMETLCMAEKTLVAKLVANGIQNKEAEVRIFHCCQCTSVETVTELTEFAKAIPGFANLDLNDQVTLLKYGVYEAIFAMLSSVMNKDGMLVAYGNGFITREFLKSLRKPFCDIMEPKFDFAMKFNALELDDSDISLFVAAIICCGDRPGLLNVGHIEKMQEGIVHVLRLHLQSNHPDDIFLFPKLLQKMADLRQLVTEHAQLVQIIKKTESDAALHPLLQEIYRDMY

[2] = mice; cited from earlier work
[3] = Body weights of SHRSP rats treated by gavage for 5 months; type: in vivo
Protocol: FIG. 3. Effects of puerarin on the body weights of rats. The rats were fed on a normal chow diet for 5 months starting when they were 4 weeks old. The rats were treated by gavage either with vehicle (normal saline) or puerarin (250 mg/Kg/day in a single dose in normal saline). The data were compared statistically by using two-way ANOVA with n=8 in each group.
Spontaneously hypertensive stroke-prone (SHRSP) male rats were fed on a normal chow diet for 5 months starting when they were 4 weeks old. The rats were treated by gavage either with vehicle (normal saline) or puerarin (250 mg/Kg/day in a single dose in normal saline). Their blood pressures and body weights were monitor everyday for 5 months.

[4] = rats, oral intake; cited from earlier work
PPAR-α [5] = assay: Protein immuno-blotting of PPAR-α expression in HepG2 cells; type: cell-based, human; settings: puerarin 1-100 μM, 24 hours, Western blotting
Protocol: FIG. 2. Expression of PPAR-α in HepG2 cells. Cells were incubated in puerarin (1-100 μM) for 24 hrs. Whole cell lysate were collected and PPAR-α expression was probed using anti-PPAR-α (Santa Cruz, Calif.) in Western blotting. Each lane was loaded with 50 μg protein from cell lysate. Expression of actin was also probed to ensure protein loading.
Cell Cultures HepG2 cells was purchased from American Type Culture Collection (Manassas, Va.). They were maintained in DMEM containing 10% heat-inactivated fetal bovine serum and 1% penicillin/streptomycin in tissue culture dishes incubated in 95% air/5% CO2, at 37° C. The media were changed 2 times per week until the cells were confluent.
Protein immuno-blotting of PPAR-α. HepG2 cells were collected in RIPA buffer (150 mM NaCl, 1% Triton X-100, 1% sodium deoxycholate, 0.1% sodium dodecyl sulfate, 50 mM Tris-HCl, 2 mM EDTA, pH 7.5) with protease inhibitors (Mini-Complete protease inhibitor cocktail tablets (Roche Diagnostics, Mannheim, Germany)] after incubated in puerarin (1-100 μM) for 24 hours. The protein content of the cell lysate was quantified by using a protein assay kit (Bio-Rad Lab, Hercules Calif.). Protein (50 μg) from the whole cell lysate was loaded in each lane of a polyacrylamide (10%) gel, eletrophoresed and blotted to a polyvinylidene difluoride (PVDF) membrane. […]

[6] = cited from earlier work

O=c1c(-c2ccc(O)cc2)coc2cc(O)ccc12 [daidzein]
activation of PPAR-α (PPAR-α [1]): activate PPAR-α

O=c1c(-c2ccc(O)cc2)coc2cc(O[C@@H]3O[C@H](CO)[C@@H](O)[C@H](O)[C@H]3O)ccc12 [daidzin, reference compound]
effect on glucose tolerance [2]: impairs glucose tolerance

O=c1c(-c2ccc(O)cc2)coc2c([C@@H]3O[C@H](CO)[C@@H](O)[C@H](O)[C@H]3O)c(O)ccc12 [puerarin, 4H-1-Benzopyran-4-one, 8-β-D-glucopyranosyl-7-hydroxy-3-(4-hydroxyphenyl)]
body weights, treatment group vs control group (two-way ANOVA) ([3]; 250 mg/Kg/day by gavage, 5-month period, n=8, P<0.001): significantly different
toxicity ([3]; 250 mg/Kg/day orally, 5 months, rats): no apparent toxicity
body weight less than the control rats in average ([3]; 250 mg/Kg/day orally, over 5 months period, SHRSP male rats, normal chow diet): 13%
absorption from the intestine [4]: rapidly absorbed
metabolism in the blood [4]: mostly remains unmetabolized
PPAR-α expression (PPAR-α [5]): upregulated
effect on glucose tolerance [2]: improves glucose tolerance
Effects ([6]; AMI patients (Xiao et al., 2004)): ↓ the infarction size, ↓free fatty acids
Effects ([6]; Angina patients (Yang et al., 1990)): Anti-angina, reducing both systolic
Effects ([6]; CHD patients (Xie et al., 2003)): Simulate the late phase of ischemic
Effects ([6]; Chronic heart failure patients (Duan et al., 2000)): ↓ oxidized-LDL, improve heart
Effects ([6]; Coronary heart disease (CHD) patients (Shi et al., 2002)): Improve insulin resistance, and insulin
Effects ([6]; Diabetic retinopathy patients (Ren et al., 2000)): ↓ blood viscosity, improve
Effects ([6]; Unstable angina (UA) patients (Luo and Zheng, 2001)): ↓ platelet granule membrane protein

Source: US20090099099A1, “Isoflavone Glycosides as Peroxisome Proliferator-Activated Receptor-alpha Modulator” (priority 2007, published 2009)
